Results as given in patent publication US8343475B2, “Small cationic antimicrobial peptides” (priority 2006, dated 2013).
In brackets after ≈: the same amount, converted by molar mass. Residues, ends and D or L forms follow the SMILES beside them.

Key:
Type in all cases: cell-based
[1] = test system: Pseudomonas aeruginosa PAO1 strain H103; details: PAO1
Method in brief: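 Modified broth microdilution MIC in Mueller Hinton medium, peptides diluted in 0.01% acetic acid/0.2% BSA, polypropylene plates. Inoculum 2-7×10^5 CFU/ml, overnight at 37 °C; MIC is the lowest concentration with no visible growth.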

[2] = test system: Enterococcus faecalis ATCC29212; details: ATCC29212
Method in brief: (§1)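 Modified microdilution, MH broth, polypropylene wells. Peptide dilutions (10× stocks in 0.01% HOAc/0.2% BSA) mixed 1:10 with medium; cells 2-7×10^5 CFU/ml; 37° C overnight; endpoint no growth.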

Escherichia coli UB1005 = details: UB1005
Method in brief: as §1

[3] = test system: Staphylococcus aureus ATCC25923; details: ATCC25923
Method in brief: as §1

[4] = test system: clinical isolate of Staphylococcus epidermidis; details: clinical isolate of
Method in brief: as §1

[5] = test system: lab isolate of Candida albicans; details: lab isolate of
Method in brief: as §1

[6] = test system: wild-type Salmonella enterica ssp. typhimurium
Method in brief: as §1

[7] = test system: MCP-1 release by human PBMC; assay: Chemokine induction in PBMC (capture ELISA); details: for Chemokine induction MCP-1: background (204) subtracted
Method in brief: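 Heparinized blood from healthy volunteers; Ficoll-isolated human PBMC (7.5×10^5) treated with peptides at 20 or 100 μg/ml for 24 hours at 37° C, 5% CO2. Cell-free supernatants assayed for MCP-1 by capture ELISA.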

[8] = test system: MCP-3 release by human PBMC; assay: Chemokine induction in PBMC (capture ELISA); details: background (6) subtracted
Method in brief: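 Human PBMC from healthy donors (Ficoll-isolated), 7.5×10^5 cells at 0.75–1×10^6 cells/ml, treated with peptides at 20 or 100 μg/ml for 24 h at 37° C, 5% CO2. MCP-3 in cell-free supernatants measured by capture ELISA.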

human PBMC = assay: Adjuvant properties: cytokine/chemokine induction by peptides alone and with CpG oligonucleotides and polyphosphazene P6; details: peptide alone 20 ug/mL, background subtracted
Protocol: Venous blood (20 ml) from healthy volunteers was collected in Vacutainer® collection tubes containing sodium heparin as an anticoagulant (Becton Dickinson, Mississauga, ON) in accordance with UBC ethical approval and guidelines. Blood was diluted 1:1 with complete RPMI 1640 medium and separated by centrifugation over a Ficoll-Paque® Plus (Amersham Biosciences, Piscataway, N.J., USA) density gradient. White blood cells were isolated from the buffy coat, washed twice in RPMI 1640 complete medium, and the number of peripheral blood mononuclear cells (PBMC) was determined by trypan blue exclusion. PBMC (5×10^5) were seeded into 12-well tissue culture dishes (Falcon; Becton Dickinson) at 0.75 to 1×10^6 cells/ml at 37° C. in 5% CO2. The above conditions were chosen to mimic conditions for circulating blood monocytes entering tissues at the site of infection via extravasation.
Following incubation of the cells under various treatment regimens, the tissue culture supernatants were centrifuged at 1000×g for 5 min, then at 10,000×g for 2 min to obtain cell-free samples. Supernatants were aliquoted and then stored at −20° C. prior to assay for various chemokines by capture ELISA (eBioscience and BioSource International Inc., CA, USA respectively)
It is well accepted that vaccine immunization is best achieved by co-administration of an adjuvant. The precise mechanism by which these adjuvants work has eluded immunologists but appears to work in part by upregulating elements of innate immunity that smooth the transition to adaptive (antigen-specific) immunity (Bendelac A and R. Medzhitov. 2002. Adjuvants of immunity: Harnessing innate immunity to promote adaptive immunity J. Exp. Med. 195:F19-F23). Within this concept there are several possible avenues by which adjuvants might work including the attraction of immune cells into the site at which a particular antigen is injected, through e.g., upregulation of chemokines, the appropriate activation of cells when they reach that site, which can be caused by local cell or tissue damage releasing endogenous adjuvants or through specific cell activation by the adjuvants, and the compartmentalization of immune responses to the site of immunization (the so-called “depot” effect). […] Therefore we studies the ability of our small host defence peptides to upregulate adjuvant responses in both human PBMC and cord blood mononuclear cells (CBMC) (representing the responses of blood cells from neonates), both alone (Table 10 and 11) and in combination with other proposed adjuvant agents that might work through other mechanisms such as CpG oligodeoxy ribonucleotides (TLR9 agionists that activate cells through interaction with TLR9 and fit into 3 different classes A=molecule 2336, B=10103 and C=2395), and polyphosphazene P6 (which induces a depot effect).

CC[C@H](C)[C@H](N)C(=O)N[C@@H](Cc1c[nH]c2ccccc12)C(=O)N[C@H](C(=O)N[C@H](C(=O)N[C@@H](Cc1c[nH]c2ccccc12)C(=O)N[C@@H](CCCNC(=N)N)C(=O)N[C@@H](CCCNC(=N)N)C(N)=O)[C@@H](C)CC)C(C)C [HH18, IWVIWRR-NH2] (H-IWVIWRR-NH2; N-terminus assumed)
MIC P. aerug [1]: 50 µg/mL (≈ 48.7 µM) | MIC E. faecalis [2]: 25 µg/mL (≈ 24.3 µM) | MIC E. coli (Escherichia coli UB1005): 6 µg/mL (≈ 5.84 µM) | MIC S. aureus [3]: 25 µg/mL (≈ 24.3 µM) | MIC S. epi. [4]: 6 µg/mL (≈ 5.84 µM) | MIC C. albicans [5]: 25 µg/mL (≈ 24.3 µM) | MIC S. typhi [6]: 12.5 µg/mL (≈ 12.2 µM) | Chemokine induction MCP-1 ([7]; 20 μg/ml peptide): 1111 pg/mL | Chemokine induction MCP-1 ([7]; 100 μg/ml peptide): 9608 pg/mL | induction of MCP1 ([7]; 20 or 100 μg/ml peptide, 24 hours (FIG. 15)): induced | Chemokine induction MCP-3 ([8]; 20 μg/ml peptide): 32 pg/mL | Chemokine induction MCP-3 ([8]; 100 μg/ml peptide): 431 pg/mL | Cytokines induced: Gro-α (human PBMC): 143 pg/mL | Cytokines induced: IL-6 (human PBMC): 180 pg/mL | Cytokines induced: IL-8 (human PBMC): 2558 pg/mL | Cytokines induced: MCP-1 (human PBMC): 64 pg/mL | Cytokines induced: MCP-3 (human PBMC): 3 pg/mL | Cytokines induced: TNF-α (human PBMC): 56 pg/mL
